ChEMBL document CHEMBL5126631, “Chemo- and Site-Selective Lysine Modification of Peptides and Proteins under Native Conditions Using the Water-Soluble Zolinium” (J Med Chem, 2022)

Columns and labels:
[1] = molecular target: T1, Replicase polyprotein 1ab (Severe acute respiratory syndrome coronavirus 2, UniProt P0DTD1); assay: Inhibition of SARS-CoV-2 3CLpro preincubated for 60 mins followed by addition of Dabcyl-KNSTLQSGLRKE-Edans fluorogenic peptide as substrate by FRET assay
[2] = molecular target: T1, Replicase polyprotein 1ab; assay: Inhibition of SARS-CoV-2 3CLpro using Dabcyl-KNSTLQSGLRKE-Edans fluorogenic peptide as substrate by FRET assay
[3] = Drug localization in nucleus of human HepG2 cells by measuring quinolylated lysine residues at proteins at 20 uM measured after 24 hrs by nano LC/MS/MS analysis; type: ADME, cell-based; conditions: hepg2, 24 h
[4] = Drug localization in cell membrane of human HepG2 cells by measuring quinolylated lysine residues at proteins at 20 uM measured after 24 hrs by nano LC/MS/MS analysis; type: ADME, cell-based; conditions: hepg2, 24 h
[5] = Drug localization in cytoskeleton of human HepG2 cells by measuring quinolylated lysine residues at proteins at 20 uM measured after 24 hrs by nano LC/MS/MS analysis; type: ADME, cell-based; conditions: hepg2, 24 h
[6] = Drug localization in endosome of human HepG2 cells by measuring quinolylated lysine residues at proteins at 20 uM measured after 24 hrs by nano LC/MS/MS analysis; type: ADME, cell-based; conditions: hepg2, 24 h
[7] = Drug localization in cytoplasm of human HepG2 cells by measuring quinolylated lysine residues at proteins at 20 uM measured after 24 hrs by nano LC/MS/MS analysis; type: ADME, cell-based; conditions: hepg2, 24 h
[8] = Drug localization in mitochondria of human HepG2 cells by measuring quinolylated lysine residues at proteins at 20 uM measured after 24 hrs by nano LC/MS/MS analysis; type: ADME; conditions: hepg2, 24 h
[9] = Drug localization in cytosol of human HepG2 cells by measuring quinolylated lysine residues at proteins at 20 uM measured after 24 hrs by nano LC/MS/MS analysis; type: ADME, subcellular
[10] = Drug localization in endoplasmic reticulum of human HepG2 cells by measuring quinolylated lysine residues at proteins at 20 uM measured after 24 hrs by nano LC/MS/MS analysis; type: ADME, cell-based; conditions: hepg2, 24 h
[11] = Drug localization in golgi apparatus of human HepG2 cells by measuring quinolylated lysine residues at proteins at 20 uM measured after 24 hrs by nano LC/MS/MS analysis; type: ADME, cell-based; conditions: hepg2, 24 h
[12] = test system: HepG2; assay: Cytotoxicity against human HepG2 cells assessed as inhibition of cell viability at 25 uM measured after 48 hrs by CCK-8 assay; type: functional

Row | Compound | IC50 [1] | IC50 [2] | Drug uptake [3] | Drug uptake [4] | Drug uptake [5] | Drug uptake [6] | Drug uptake [7] | Drug uptake [8] | Drug uptake [9] | Drug uptake [10] | Drug uptake [11] | Activity [12]
1 | C#Cc1ccc2c(ccc3[n+]2C(OC)C[Se]3)c1 (stereo unspecified) | 3.66 µM | 75 µM | 22.61% | 11.88% | 11.11% | 2.3% | 15.71% | 2.3% | 19.16% | 1.53% | 1.53% | –
2 | COC1CSc2ccc3cc(C(=O)NCCCCCN4C(=O)c5cccc6c(N(C)C)ccc(c56)C4=O)ccc3[n+]21.Cl.[Cl-] (stereo unspecified) | – | – | – | – | – | – | – | – | – | – | – | 90%
3 | C#Cc1ccc2c(ccc3[n+]2C(OC)CS3)c1 (stereo unspecified) | – | – | 27.19% | 8.77% | 7.02% | 3.51% | 14.04% | 2.63% | 17.54% | 4.39% | 5.26% | –
